Data on four compounds can be found in publication PMC6508677, “Identification of druggable small molecule antagonists of the Plasmodium falciparum hexose transporter PfHT and assessment of ligand access to the glucose permeation pathway via FLAG-mediated protein engineering” (PLoS ONE, 2019).

As a reminder, the inhibition is the drop in the measured response relative to a control, in per cent. What is called IC50 is the point on the concentration scale where inhibition reaches its midpoint. A lower IC50 goes with greater potency in that assay.

Each structure is given as a SMILES string. Where “and” joins values, the source holds several entries; their conditions need not be identical. Equal entries are not always repeated. A value given as a limit tells only on which side of the number the result lay.

Experiment [1] has as its target T1, hGLUT3 (Homo sapiens, UniProt P11169).
T1 construct: expressed in transfected cells; host or cells: HEK293 (HEK293-FLIP, native hGLUT1 knocked down by shRNA)
T1 sequence (P11169 1-496): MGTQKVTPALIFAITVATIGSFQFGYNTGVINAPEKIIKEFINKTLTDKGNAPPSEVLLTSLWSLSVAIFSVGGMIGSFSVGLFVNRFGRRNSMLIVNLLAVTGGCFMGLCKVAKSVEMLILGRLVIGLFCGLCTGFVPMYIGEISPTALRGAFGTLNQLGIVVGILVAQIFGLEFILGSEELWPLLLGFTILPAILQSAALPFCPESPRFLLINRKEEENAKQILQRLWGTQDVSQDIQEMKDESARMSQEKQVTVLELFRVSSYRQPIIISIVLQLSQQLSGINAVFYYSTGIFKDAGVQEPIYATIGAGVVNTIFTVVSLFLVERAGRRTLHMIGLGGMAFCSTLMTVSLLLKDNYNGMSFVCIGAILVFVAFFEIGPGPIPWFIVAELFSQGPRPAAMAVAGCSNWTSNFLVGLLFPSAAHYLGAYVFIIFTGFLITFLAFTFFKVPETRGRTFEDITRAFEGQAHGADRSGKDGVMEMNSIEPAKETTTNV
Nature of the experiment: 2-DG uptake by HEK293 cells overexpressing hGLUT3. It is filed as cell-based. To be noted: for remaining activity at 0.001 µM: 0.001 µM compound; for remaining activity at 5 µM / inhibition at 5 µM: 5 μM compound; for remaining activity at 40 µM: 40 µM compound; for remaining activity at 80 µM: 80 µM compound; for remaining activity at 160 µM: 160 µM compound; for remaining activity at 225 µM: 225 µM compound; for IC50: IC50 for inhibition of 2-DG uptake. From the text:
(§1) Generation of HEK293 cells overexpressing PfHT and human GLUTs 1–4 were described elsewhere. Briefly, HEK293 cells were transfected with pcDNA3.1 FLII12Pglu-7006 (Addgene), containing the fluorescence resonance energy transfer (FRET) glucose sensor (HEK293-FLIP) and PfHT, human GLUT1 (hGLUT1), hGLUT2, hGLUT3, hGLUT4, hGLUT5 or hGLUT8 using Optifect (Life Technologies) according to manufacturer’s specifications. To increase retention of GLUT8 at the plasma membrane, the dileucine sorting signal E^7E^8XXXLL was modified to R^7R^8XXXLL as described in [17]. Stable transfectants were selected for G418 and hygromycin resistance to select for FRET sensor and hexose transporter, respectively. HEK293-FLIP cells were also used to generate cells stably transfected with FLAG-tagged PfHT (FTPfHT). FLAG tag ([…]) followed by a triple glycine linker and a tobacco etch virus (TEV) protease site (ENLYFQS) followed by a triple glycine linker was added to the N-terminus of PfHT via PCR [18] using Phusion Hot Start II High-Fidelity DNA Polymerase (Fisher Scientific). Single clones were selected by comparing their abilities to transport glucose as assayed via FRET and radiolabeled hexose uptake. In all cell lines, except for HEK293 cells overexpressing hGLUT1 and hGLUT5, native hGLUT1 was knocked down using shRNA as described elsewhere. Transcript levels of the individual GLUTs expressed in each cell line are as described in [13, 15] and in S1 Fig.
(§2) Glucose uptake by P. falciparum was performed essentially as described. P. falciparum strain 3D7 was cultured in 100 mm tissue culture dishes (Techno Plastic Products) in a 2% suspension of human erythrocytes and RPMI 1640 medium until reaching > 7.5% parasitemia. Cells were pelleted via centrifugation and resuspended in RPMI 1640 medium. To determine the uptake of radiolabeled glucose into the parasite, parasites were isolated from infected erythrocytes by permeablization with saponin (0.05 w/v), followed by centrifugation, aspiration of supernatant and washing of the pellet 3X with saline solution (135 mM NaCl, 2 mM KCl, 25 mM HEPES, 0.2 mM glucose and 1 mM MgCl2; pH 7.1) to remove cellular debris. WU-1 or DMSO vehicle were added to 100 μl parasites (resuspended in saline) 5 min prior to the addition of 100 μl [^14C]2-DOG (0.2- μCi/ml final concentration). 2-DG uptake was stopped after 2 min by layering the entire reaction over 300 μl of an oil mixture (5:4 mix of dibutyl phthalate / dinonyl phthalate) in Eppendorf tubes and centrifuged at 15,850 × g for 2 mins. The ratio of the estimated intracellular concentration of radiolabel relative to the extracellular concentration were calculated as described. Uptake of radiolabeled hexose into HEK293 cells was measured in glucose-free HBSS as described previously. Briefly, cells were plated at 400,000 cells/well overnight at 37°C in 24-well plates pre-treated with PEI. After 30-min incubation at 37°C in glucose-free HBSS in the presence of vehicle or increasing concentrations of compound, 2-DG uptake was measured in glucose-free HBSS for 4 min at 37°C. Cultures were washed in ice-cold 1X PBS and lysed in 0.1% Triton X-100 in 1X PBS. Radiolabeled hexose uptake was determined by liquid scintillation counting (Ultima Gold, Thermo Fisher) and normalized to total protein per well. Uptake data are plotted as percent uptake relative to vehicle-treated cells. Kinetic analyses were performed using the indicated concentrations of substrate and WU-1, with quenching of uptake after 1 min incubation. Incubation times had been previously determined as being in the linear range of time-dependent radiolabeled hexose uptake (2 min for 2-DG uptake into freed parasites; 2 and 4 min for D-Frc and 2-DG uptake HEK cell lines, respectively). Data were fit by least squares nonlinear regression analysis using GraphPad Prism 6.0 software.

Experiment [2] deals with T2, hGLUT2 (Homo sapiens, UniProt P11168).
T2 construct: expressed in transfected cells; host or cells: HEK293 (HEK293-FLIP, native hGLUT1 knocked down by shRNA)
T2 sequence (P11168 1-524): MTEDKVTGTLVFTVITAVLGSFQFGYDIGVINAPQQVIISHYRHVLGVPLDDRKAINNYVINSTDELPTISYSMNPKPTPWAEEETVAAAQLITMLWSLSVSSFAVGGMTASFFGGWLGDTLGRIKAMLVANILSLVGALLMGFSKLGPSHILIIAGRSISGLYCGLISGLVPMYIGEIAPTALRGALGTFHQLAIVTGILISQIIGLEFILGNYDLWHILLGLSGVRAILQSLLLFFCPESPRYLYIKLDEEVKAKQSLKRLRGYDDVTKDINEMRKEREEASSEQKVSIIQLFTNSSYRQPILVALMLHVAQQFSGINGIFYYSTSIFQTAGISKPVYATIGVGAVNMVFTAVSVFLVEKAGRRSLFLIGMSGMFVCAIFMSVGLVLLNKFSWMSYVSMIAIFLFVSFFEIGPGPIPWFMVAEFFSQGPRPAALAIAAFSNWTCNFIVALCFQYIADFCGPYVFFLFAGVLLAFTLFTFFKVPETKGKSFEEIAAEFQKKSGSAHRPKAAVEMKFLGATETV
Kind of experiment: 2-DG uptake by HEK293 cells overexpressing hGLUT2. It is filed as cell-based. To be noted: for remaining activity at 0.001 µM: 0.001 µM compound; for remaining activity at 1.25 µM: 1.25 µM compound; for remaining activity at 5 µM / inhibition at 5 µM: 5 μM compound; for remaining activity at 80 µM: 80 µM compound; for remaining activity at 160 µM: 160 µM compound; for IC50: IC50 for inhibition of 2-DG uptake.
Description: as §1, §2

Setting [3] is: HEK293, 4 min, GLUT3, read-out: 2-DG uptake (percent uptake relative to vehicle), AVE per experiment.
Where [4] appears, read: HEK293, 4 min, GLUT3, 2.5 µM compound, read-out: 2-DG uptake (percent uptake relative to vehicle), AVE per experiment.
[5] abbreviates: HEK293, 4 min, GLUT3, read-out: % Inhibition of 2-DG uptake vs vehicle.
Setting [6] is: HEK293, 4 min, GLUT3, 10 µM compound, read-out: 2-DG uptake (percent uptake relative to vehicle), AVE per experiment.
Setting [7] is: GLUT3 cell line, mean/reported value.
[8] abbreviates: individual experiments, GLUT3, Expt 1-3.
[9] abbreviates: HEK293, 4 min, GLUT2, read-out: 2-DG uptake (percent uptake relative to vehicle), AVE per experiment.
[10] abbreviates: HEK293, 4 min, GLUT2, 2.5 µM compound, read-out: 2-DG uptake (percent uptake relative to vehicle), AVE per experiment.
Where [11] appears, read: HEK293, 4 min, GLUT2, read-out: % Inhibition of 2-DG uptake vs vehicle.
Where [12] appears, read: GLUT2 cell line, mean/reported value.
Where [13] appears, read: individual experiments, GLUT2, Expt 1-3.

For `COc1cc(/C=C2\COC/C(=C\c3cc(OC)c(OC)c(OC)c3)C2=O)cc(OC)c1OC` [WU-5, (3E,5E)-3,5-bis[(3,4,5-trimethoxyphenyl)methylidene]oxan-4-one], the inhibition at 2.5 µM in experiment [1] (HEK293, 4 min, GLUT3, 2.5 µM compound, read-out: % Inhibition of 2-DG uptake vs vehicle) is around 20%; in experiment [2] (HEK293, 4 min, GLUT2, 2.5 µM compound, read-out: % Inhibition of 2-DG uptake vs vehicle) it was around 70%.
Regarding `Cc1ccc(S(=O)(=O)CCNC(=O)c2c(-c3c(Cl)cccc3Cl)noc2C)cc1` [WU-1, 3-(2,6-dichlorophenyl)-5-methyl-N-[2-(4-methylbenzenesulfonyl)ethyl]-1,2-oxazole-4-carboxamide], the “IC50 for inhibition of 2-DG uptake, individual experiments” value in experiment [1] (GLUT3, Expt 1-3) was “ambiguous”; in experiment [2] (GLUT2, Expt 1-3), “ambiguous”. Besides, the remaining activity at 0.001 µM in experiment [1] (setting [3]) and in experiment [2] (setting [9]) was 100% throughout. The remaining activity at 1.25 µM amounted to 110% in experiment [1] (HEK293, 4 min, GLUT3, 1.25 µM compound, read-out: 2-DG uptake (percent uptake relative to vehicle), AVE per experiment) and 108% in experiment [2] (setting [9]). Moreover, the results for the remaining activity at 2.5 µM in experiment [1] (setting [4]) and in experiment [2] (setting [10]) were 103% and 110%, respectively. The remaining activity at 5 µM in experiment [1] (setting [3]) turned out to be 99.5%; in experiment [2] (setting [9]), 83%. The results for the inhibition at 5 µM in experiment [1] (setting [5]) and in experiment [2] (setting [11]) were 0.48% and around 10%, respectively. Besides, the remaining activity at 10 µM in experiment [1] (setting [6]) turned out to be 103%. Moreover, in experiment [1] (HEK293, 4 min, GLUT3, 20 µM compound, read-out: 2-DG uptake (percent uptake relative to vehicle), AVE per experiment), the remaining activity at 20 µM was 102%. Besides, the remaining activity at 40 µM in experiment [1] (setting [3]) is 82.5%. The results for the remaining activity at 80 µM in experiment [1] (setting [3]) and in experiment [2] (setting [9]) were 76.4% and 73.8%, respectively. The remaining activity at 160 µM turned out to be 80% in experiment [1] (setting [3]) and 54.5% in experiment [2] (setting [9]). Further, the remaining activity at 225 µM in experiment [1] (setting [3]) is 75.3%. Also, the IC50 in experiment [1] (setting [7]) was above 100 µM; in experiment [1] (setting [8]), above 225 µM; in experiment [2] (setting [12]), above 50 µM; in experiment [2] (setting [13]) it was 52.4 µM.
As for `COc1c(Br)cc([N+](=O)[O-])c(OC)c1C(=O)NC(=O)Nc1c(C)cccc1Cl` [WU-2, 3-(3-bromo-2,6-dimethoxy-5-nitrobenzoyl)-1-(2-chloro-6-methylphenyl)urea], the remaining activity at 0.001 µM in experiment [1] (setting [3]) and in experiment [2] (setting [9]) was 100% each time. For the same compound, the remaining activity at 2.5 µM in experiment [1] (setting [4]) is 92.9%; in experiment [2] (setting [10]) it was 83.6%. Further, the figures for the remaining activity at 5 µM in experiment [1] (setting [3]) and in experiment [2] (setting [9]) were 92.4% and 74.5%, respectively. Besides, the inhibition at 5 µM in experiment [1] (setting [5]) and in experiment [2] (setting [11]) was 10 to 12% throughout. Moreover, the remaining activity at 10 µM in experiment [1] (setting [6]) is 95.1%; in experiment [2] (HEK293, 4 min, GLUT2, 10 µM compound, read-out: 2-DG uptake (percent uptake relative to vehicle), AVE per experiment), 62.8%. The remaining activity at 40 µM was 91.7% in experiment [1] (setting [3]) and 39.5% in experiment [2] (HEK293, 4 min, GLUT2, 40 µM compound, read-out: 2-DG uptake (percent uptake relative to vehicle), AVE per experiment). Moreover, the values for the remaining activity at 80 µM in experiment [1] (setting [3]) and in experiment [2] (setting [9]) were 81.9% and 35.2%, respectively. For the same compound, the remaining activity at 160 µM in experiment [1] (setting [3]) was determined as 68.7%; in experiment [2] (setting [9]), 42.1%. Moreover, the remaining activity at 225 µM in experiment [1] (setting [3]) is 77.5%; in experiment [2] (HEK293, 4 min, GLUT2, 225 µM compound, read-out: 2-DG uptake (percent uptake relative to vehicle), AVE per experiment), 30.9%. The IC50 in experiment [1] (setting [7]) is above 50 µM; in experiment [1] (setting [8]), 103 µM and 61.6 µM and 11.4 µM; in experiment [2] (setting [12]) it was 15.9 ± 2.5 µM; in experiment [2] (setting [13]), 14.1 µM and 20.8 µM and 12.9 µM. The “Maximum Inhibition (%)” value in experiment [2] (2-DG uptake, GLUT2 cell line) worked out at 62.0%. Further, the remaining activity at 1.25 µM in experiment [2] (setting [9]) stood at 102%. Also, the remaining activity at 20 µM in experiment [2] (HEK293, 4 min, GLUT2, 20 µM compound, read-out: 2-DG uptake (percent uptake relative to vehicle), AVE per experiment) was 64%.
As to `COc1cc(/C=N/NC(=O)c2cc(-c3ccccc3)sc2N)cc(OC)c1OC` [WU-3, 2-amino-5-phenyl-N'-[(E)-(3,4,5-trimethoxyphenyl)methylidene]thiophene-3-carbohydrazide], the inhibition at 10 µM in experiment [1] (HEK293, 4 min, GLUT3, 10 µM compound, read-out: % Inhibition of 2-DG uptake vs vehicle) was at least 50%.
